This note sets out measurements from US10556902B2 (Asceneuron SA, priority 2016, dated 2020).

His-Tagged hOGA (human O-GlcNAcase), sequence (O60502 whole entry): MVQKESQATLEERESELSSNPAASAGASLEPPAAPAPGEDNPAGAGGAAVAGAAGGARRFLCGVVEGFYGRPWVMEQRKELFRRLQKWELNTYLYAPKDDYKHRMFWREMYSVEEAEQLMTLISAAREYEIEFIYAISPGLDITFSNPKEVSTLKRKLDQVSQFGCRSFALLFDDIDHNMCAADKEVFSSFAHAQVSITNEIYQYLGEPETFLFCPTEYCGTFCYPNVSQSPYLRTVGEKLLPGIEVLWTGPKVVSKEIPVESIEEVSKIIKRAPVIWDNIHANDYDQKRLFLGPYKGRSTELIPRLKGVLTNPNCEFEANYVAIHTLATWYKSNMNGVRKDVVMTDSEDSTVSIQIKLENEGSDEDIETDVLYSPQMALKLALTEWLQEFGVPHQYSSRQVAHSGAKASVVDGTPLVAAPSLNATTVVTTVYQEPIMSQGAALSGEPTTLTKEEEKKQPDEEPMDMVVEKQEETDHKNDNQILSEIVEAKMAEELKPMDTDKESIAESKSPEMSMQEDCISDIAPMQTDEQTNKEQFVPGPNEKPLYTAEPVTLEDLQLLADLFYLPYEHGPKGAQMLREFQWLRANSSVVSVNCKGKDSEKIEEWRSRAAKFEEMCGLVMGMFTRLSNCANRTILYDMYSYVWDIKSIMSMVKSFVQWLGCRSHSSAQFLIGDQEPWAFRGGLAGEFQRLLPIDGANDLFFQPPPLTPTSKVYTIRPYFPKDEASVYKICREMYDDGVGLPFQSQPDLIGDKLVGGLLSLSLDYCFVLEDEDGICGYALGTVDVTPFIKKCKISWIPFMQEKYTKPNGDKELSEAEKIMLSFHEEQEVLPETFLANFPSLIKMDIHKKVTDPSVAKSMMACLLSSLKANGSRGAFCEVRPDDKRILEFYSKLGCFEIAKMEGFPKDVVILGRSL

One experiment addresses His-Tagged hOGA (human O-GlcNAcase) (Homo sapiens (Human), UniProt O60502). Nature of the experiment: Human O-GlcNAcase enzyme inhibition assay.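 Also: reactions contained 20 nM His-tagged hOGA enzyme with 10 µM FL-GlcNAc substrate.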 The class given is biochemical. As to conditions: OGA IC50 (M), FL-GlcNAc substrate, pH 6.5, activity classes defined in μM.
Protocol: Then, 20 nM of His-Tagged hOGA and 10 μM of FL-GlcNAc (Fluorescein mono-beta-D-(2-deoxy-2-N-acetyl) glucopyranoside; Marker Gene Technologies Inc, M1485) were added to the 384-well plate for a final volume of 20 μl.
For `CC(c1ccc2nccnc2c1)N1CCN(c2ccc(=O)[nH]n2)CC1` (stereo not shown) [Example 39], the IC50 (usually the midpoint of a concentration-inhibition curve) is 5e-08 to 2e-07 M.

Consider `CC(O)c1nnc(N2CCN(C(C)c3ccc4nccnc4c3)CC2)s1` (racemic) [Example 115, 1-(5-(4-(1-(quinoxalin-6-yl)ethyl)piperazin-1-yl)-1,3,4-thiadiazol-2-yl)ethan-1-ol], for which the IC50 is 2e-07 to 1e-06 M.

Still in this experiment, the particulars now being: OGA enzyme inhibition assay; FL-GlcNAc substrate, pH 6.5; activity classes defined in μM; read-out: OGA IC50.
Consider `CC(c1ccc2c(c1)OCC2)N1CCN(c2nccc(C(=O)N(C)C)n2)CC1` (racemic) [Example 101, 2-(4-(1-(2,3-dihydrobenzofuran-6-yl)ethyl)piperazin-1-yl)-N,N-dimethylpyrimidine-4-carboxamide], for which the IC50 was under 5e-08 M.

Take `CC(c1cnc2cccnc2c1)N1CCN(c2ncc(C(F)(F)F)cn2)CC1` (racemic) [Example 93, 3-(1-(4-(5-(trifluoromethyl)pyrimidin-2-yl)piperazin-1-yl)ethyl)-1,5-naphthyridine]: the IC50 was in the range of 2e-07 to 1e-06 M.

As for `C[C@@H](c1cnc2cccnc2c1)N1CCN(c2ncc(C(F)(F)F)cn2)CC1` [Example 221], the IC50 was in the range of 2e-07 to 1e-06 M.

For `CC(C)C(O)c1ccc(N2CCN(C(C)c3ccc4nccnc4c3)CC2)nc1` (racemic) [Example 55, 2-methyl-1-(6-(4-(1-(quinoxalin-6-yl)ethyl)piperazin-1-yl)pyridin-3-yl)propan-1-ol], the IC50 fell in the range of 2e-07 to 1e-06 M.

Take `CC(c1ccc2nccnc2c1)N1CCN(c2ccc(F)nn2)CC1` (racemic) [Example 41, 6-(1-(4-(6-Fluoropyridazin-3-yl)piperazin-1-yl)ethyl)quinoxaline]: the IC50 was 2e-07 to 1e-06 M.

`CC(c1ccc2nccnc2c1)N1CCN(c2ccc(C(=O)O)cn2)CC1` (racemic) [Example 67, 6-(4-(1-(quinoxalin-6-yl)ethyl)piperazin-1-yl) nicotinic acid]: the IC50 fell in the range of 5e-08 to 2e-07 M.

Regarding `CC(c1ccc2c(c1)OCC2)N1CCN(c2ccc(C(O)C(F)(F)F)cn2)CC1` (racemic) [Example 50, 1-(6-(4-(1-(2,3-dihydrobenzofuran-6-yl)ethyl)piperazin-1-yl)pyridin-3-yl)-2,2,2-trifluoroethan-1-ol], the IC50 was under 5e-08 M.

With `CC(c1ccc2nccnc2c1)N1CCN(c2ccc(I)nn2)CC1` (racemic) [Example 43], the IC50 was in the range of 2e-07 to 1e-06 M.

`CC(c1ccc2c(c1)OCC2)N1CCC(n2cc(C(F)(F)F)cn2)CC1` (racemic) [Example 29, 1-(1-(2,3-Dihydrobenzofuran-6-yl)ethyl)-4-(4-(trifluoromethyl)-1H-pyrazol-1-yl) piperidine]: the IC50 lay in the range of 2e-07 to 1e-06 M.

Take `CC(=O)Nc1nnc(N2CCN(C(C)c3ccc4c(c3)OCC4)CC2)s1` (single isomer, unassigned) [Example 108]: the IC50 lay in the range of 1e-06 to 1e-05 M.

Turning to `CC(c1ccc2c(c1)OCC2)N1CCC(n2cc(S(C)(=O)=O)cn2)CC1` (racemic) [Example 34, 1-(1-(2,3-dihydrobenzofuran-6-yl)ethyl)-4-(4-(methylsulfonyl)-1H-pyrazol-1-yl)piperidine], the IC50 is 2e-07 to 1e-06 M.

Take `CC(c1ccc2nccnc2c1)N1CCN(c2ccc(C(F)(F)F)nn2)CC1` (racemic) [Example 42, 6-(1-(4-(6-(trifluoromethyl)pyridazin-3-yl)piperazin-1-yl)ethyl)quinoxaline]: the IC50 was in the range of 2e-07 to 1e-06 M.

`CC(c1ccc2c(c1)OCC2)N1CCN(c2ncc(C(C)(C)O)cn2)CC1` (racemic) [Example 74, 2-(2-(4-(1-(2,3-dihydrobenzofuran-6-yl)ethyl)piperazin-1-yl)pyrimidin-5-yl) propan-2-ol]: the IC50 is under 5e-08 M.

Consider `CC(O)c1ccc(N2CCN(C(C)c3ccc4c(c3)OCC4)CC2)nn1` (racemic) [Example 35, 1-(6-(4-(1-(2,3-dihydrobenzofuran-6-yl)ethyl)piperazin-1-yl)pyridazin-3-yl)ethan-1-ol], for which the IC50 is under 5e-08 M.

As to `COC(=O)c1ccc(N2CCN(C(C)c3ccc4c(c3)OCC4)CC2)nc1` (racemic) [Example 62, Methyl 6-(4-(1-(2,3-dihydrobenzofuran-6-yl)ethyl)piperazin-1-yl)nicotinate], the IC50 is under 5e-08 M.

On to `COC(=O)c1cccc(N2CCN(C(C)c3ccc4nccnc4c3)CC2)n1` (racemic) [Example 70, Methyl 6-(4-(1-(quinoxalin-6-yl)ethyl)piperazin-1-yl)picolinate], for which the IC50 lay within 2e-07 to 1e-06 M.

As for `CC(=O)NC(C)(C)c1cnc(N2CCN(C(C)c3ccc4c(c3)OCC4)CC2)nc1` (racemic) [Example 104], the IC50 is under 5e-08 M.

Take `CC(c1ccc2nccnc2c1)N1CCN(c2nc3c(s2)C(=O)N(C)CC3)CC1` (racemic) [Example 14, 5-methyl-2-(4-(1-(quinoxalin-6-yl)ethyl)piperazin-1-yl)-6,7-dihydrothiazolo[5,4-c]pyridin-4(5H)-one]: the 50% inhibitory concentration (IC50) is 2e-07 to 1e-06 M.

Consider `CC(c1ccc2scnc2c1)N1CCN(c2ncc(CO)cn2)CC1` (racemic) [Example 73, (2-(4-(1-(benzo[d]thiazol-5-yl)ethyl)piperazin-1-yl)pyrimidin-5-yl)methanol], for which the IC50 is under 5e-08 M.

Regarding `CC(=O)Nc1cnn(C2CCN(C(C)c3ccc4nccnc4c3)CC2)c1` (racemic) [Example 27, N-(1-(1-(1-(quinoxalin-6-yl)ethyl)piperidin-4-yl)-1H-pyrazol-4-yl)acetamide], the IC50 was 1e-06 to 1e-05 M.

Take `CC(=O)NCc1nnc(N2CCN(C(C)c3ccc4nccnc4c3)CC2)s1` (racemic) [Example 112, N-((5-(4-(1-(quinoxalin-6-yl)ethyl)piperazin-1-yl)-1,3,4-thiadiazol-2-yl)methyl)acetamide]: the IC50 fell in the range of 5e-08 to 2e-07 M.

Take `CC(O)c1ccc(N2CCN(C(C)c3ccc4nccnc4c3)CC2)nc1` (racemic) [Example 52, 1-(6-(4-(1-(quinoxalin-6-yl)ethyl)piperazin-1-yl)pyridin-3-yl)ethan-1-ol]: the IC50 is 2e-07 to 1e-06 M.

With `CC(c1ccc2nccnc2c1)N1CCN(c2n[nH]c(=O)s2)CC1` (racemic) [Example 21, 5-(4-(1-(quinoxalin-6-yl)ethyl)piperazin-1-yl)-1,3,4-thiadiazol-2(3H)-one], the IC50 was in the range of 5e-08 to 2e-07 M.

Take `CC(c1ccc2nccnc2c1)N1CCN(c2ccc(C(O)C(F)(F)F)cn2)CC1` (racemic) [Example 56, 2,2,2-trifluoro-1-(6-(4-(1-(quinoxalin-6-yl)ethyl)piperazin-1-yl)pyridin-3-yl)ethan-1-ol]: the IC50 lay in the range of 5e-08 to 2e-07 M.

Turning to `CNC(=O)c1ccnc(N2CCN(C(C)c3ccc4c(c3)OCC4)CC2)n1` (racemic) [Example 103, 2-(4-(1-(2,3-dihydrobenzofuran-6-yl)ethyl)piperazin-1-yl)-N-methylpyrimidine-4-carboxamide], the IC50 was under 5e-08 M.

As to `CC(C)C(O)c1cnc(N2CCN(C(C)c3ccc4c(c3)OCC4)CC2)nc1` (racemic) [Example 78, 1-(2-(4-(1-(2,3-dihydrobenzofuran-6-yl)ethyl)piperazin-1-yl)pyrimidin-5-yl)-2-methylpropan-1-ol], the IC50 is under 5e-08 M.

For the molecule `CC(c1ccc2nccnc2c1)N1CCN(c2ccc(C3(O)COC3)cn2)CC1` (racemic) [Example 59, 3-(6-(4-(1-(quinoxalin-6-yl)ethyl)piperazin-1-yl)pyridin-3-yl)oxetan-3-ol], the IC50 was in the range of 5e-08 to 2e-07 M.

For the molecule `CC(c1ccc2c(c1)OCC2)N1CCC(n2cc(F)cn2)CC1` (racemic) [Example 30, 1-(1-(2,3-dihydrobenzofuran-6-yl)ethyl)-4-(4-fluoro-1H-pyrazol-1-yl)piperidine], the IC50 is 2e-07 to 1e-06 M.

Turning to `CC(c1ccc2c(c1)OCC2)N1CCN(c2nnc(C(=O)N(C)C)s2)CC1` (racemic) [Example 119, 5-(4-(1-(2,3-dihydrobenzofuran-6-yl)ethyl)piperazin-1-yl)-N,N-dimethyl-1,3,4-thiadiazole-2-carboxamide], the IC50 was under 5e-08 M.

Turning to `CC(c1ccc2c(c1)OCC2)N1CCN(c2nnc(CN)s2)CC1` (racemic) [Example 124, (5-(4-(1-(2,3-dihydrobenzofuran-6-yl)ethyl)piperazin-1-yl)-1,3,4-thiadiazol-2-yl)methanamine], the concentration for half-maximal inhibition (IC50) is under 5e-08 M.

Regarding `CC(c1ccc2nccnc2c1)N1CCN(c2ccc(C3(O)CCOC3)cn2)CC1` (racemic) [Example 58, 3-(6-(4-(1-(quinoxalin-6-yl)ethyl)piperazin-1-yl)pyridin-3-yl)tetrahydrofuran-3-ol], the IC50 is 5e-08 to 2e-07 M.

Consider `CC(c1ccc2nccnc2c1)N1CCC(c2n[nH]c(=O)o2)CC1` (racemic) [Example 22, 5-(1-(1-(quinoxalin-6-yl)ethyl)piperidin-4-yl)-1,3,4-oxadiazol-2(3H)-one], for which the IC50 is 2e-07 to 1e-06 M.

With `CNC(=O)c1nnc(N2CCN(C(C)c3ccc4c(c3)OCC4)CC2)s1` (racemic) [Example 118, 5-(4-(1-(2,3-dihydrobenzofuran-6-yl)ethyl)piperazin-1-yl)-N-methyl-1,3,4-thiadiazole-2-carboxamide], the IC50 was under 5e-08 M.

Regarding `CC(c1ccc2nccnc2c1)N1CCN(c2ncc(C(C)(C)O)cn2)CC1` (racemic) [Example 85, 2-(2-(4-(1-(quinoxalin-6-yl)ethyl)piperazin-1-yl)pyrimidin-5-yl) propan-2-ol], the IC50 was 5e-08 to 2e-07 M.

For `CC(c1ccc2nccnc2c1)N1CCN(c2ncc(C(O)C(F)(F)F)cn2)CC1` (racemic) [Example 87, 2,2,2-trifluoro-1-(2-(4-(1-(quinoxalin-6-yl)ethyl)piperazin-1-yl)pyrimidin-5-yl)ethan-1-ol], the IC50 lay in the range of 5e-08 to 2e-07 M.

On to `CC(c1ccc2nccnc2c1)N1CCN(c2ncc(C3(O)CCOCC3)cn2)CC1` (racemic) [Example 89, 4-(2-(4-(1-(quinoxalin-6-yl)ethyl)piperazin-1-yl)pyrimidin-5-yl)tetrahydro-2H-pyran-4-ol], for which the IC50 lay within 5e-08 to 2e-07 M.

Take `CC(O)c1nnc(N2CCN(C(C)c3ccc4c(c3)OCC4)CC2)s1` (racemic) [Example 114, 1-(5-(4-(1-(2,3-dihydrobenzofuran-6-yl)ethyl)piperazin-1-yl)-1,3,4-thiadiazol-2-yl)ethan-1-ol]: the 50% inhibitory concentration (IC50) is under 5e-08 M.

Regarding `CC(C)C(O)c1cnc(N2CCN(C(C)c3ccc4nccnc4c3)CC2)nc1` (racemic) [Example 88, 2-methyl-1-(2-(4-(1-(quinoxalin-6-yl)ethyl)piperazin-1-yl)pyrimidin-5-yl) propan-1-ol], the IC50 was 5e-08 to 2e-07 M.
